{
  "source": "paper PMC8341874",
  "about": "(RSC Chemical Biology, 2021)",
  "system": "20S core particle (20S CP) of the proteasome",
  "assay": "FRET peptide reporter hydrolysis, single concentration",
  "assay_type": "biochemical, Homo sapiens",
  "settings": "stimulator (activation); site unknown",
  "data": [
    {"smiles": "C[C@H]1[C@H](C)CC[C@]2(C(=O)O)CC[C@]3(C)C(=CC[C@@H]4[C@@]5(C)CC[C@H](O)C(C)(C)[C@@H]5CC[C@]43C)[C@H]12", "note": "[UA, ursolic acid]", "values": [
      {"measurement": "% stimulation over control at 25 μM", "result": 215, "unit": "%"}
    ]}
  ]
}
